One test concerns HL-60. In words: Inhibition of [3H]Arachidonic acid production by stimulated HL60 (human leukemia) cells. It counts as functional, cell-based.
Test [1] is described as follows: In vitro inhibition of human recombinant cytosolic phospholipase A2 (c-PLA2).

Each structure is given as a SMILES string. pIC50: −log10 of the molar value.

As usually defined, the pIC50 is the IC50 on a negative log10 scale, so that one unit is a factor of ten.

With `O=C(COc1ccc(C(=O)O)cc1)COc1ccc([S+]([O-])CCCCCc2ccccc2)cc1` (configuration not stated), the pIC50 in the test with HL-60 was 4.74; in test [1], 5.74.
`O=C(COc1ccc(C(=O)O)cc1)COc1ccc2c(c1)C(=O)N(Cc1ccc(Cl)c(Cl)c1)C2=O`: the pIC50 with HL-60 is 6.00; in test [1], 6.25.
As for `O=C(COc1ccc(OCCCCCC2CCCO2)cc1)COc1ccc(C(=O)O)cc1` (configuration not stated), in test [1], the pIC50 was 5.28.
Regarding `O=C(COc1ccc(SCCCCCc2ccco2)cc1)COc1ccc(C(=O)O)cc1`, the pIC50 with HL-60 was 6.00; in test [1], 7.10.
In the same order, the values of `O=C(COc1ccc(C(=O)O)cc1)COc1ccc(-c2noc(-c3ccc(Cl)c(Cl)c3)n2)cc1` are 5.33 and 7.40.
Take `O=C(COc1ccc(C(=O)O)cc1)COc1ccc(C(=O)NCCCCc2ccccc2)cc1`: in test [1], the pIC50 is 4.70.
Consider `O=C(COc1ccc(C(=O)O)cc1)COc1ccc(S(=O)(=O)CCCCCc2ccccc2)cc1`, for which the negative logarithm of the IC50 (pIC50) in the test on HL-60 is 5.28; in test [1], 6.00.
As to `O=C(COc1ccc(SCCCCSc2nccs2)cc1)COc1ccc(C(=O)O)cc1`, the pIC50 with HL-60 was 5.96; in test [1] it was 6.12.
On to `Cn1ccnc1SCCCCOc1ccc(OCC(=O)COc2ccc(C(=O)O)cc2)cc1`, for which the pIC50 in test [1] is 4.20.
Consider `O=C(COc1ccc(OCc2ccc(Cl)c(Cl)c2)cc1)COc1ccc(C(=O)O)cc1`, for which the negative logarithm of the IC50 (pIC50) with HL-60 was 5.70; in test [1], 6.60.
With `O=C(COc1ccc(C(=O)O)cc1)COc1ccc(-c2noc(CCCCc3ccccc3)n2)cc1`, the pIC50 in the test on HL-60 was 6.12; in test [1], 6.57.
With `CN(CCc1ccccc1)C(=O)CSc1ccc(OCC(=O)COc2ccc(C(=O)O)cc2)cc1`, in test [1], the pIC50 was 4.47.
For the molecule `O=C(COc1ccc(OCCCCSc2nc3ccccc3o2)cc1)COc1ccc(C(=O)O)cc1`, the pIC50 was 5.96 with HL-60 and 6.85 in test [1].
Turning to `O=C(COc1ccc(C(=O)O)cc1)COc1ccc(C(=O)OCCCCCc2ccccc2)cc1`, the pIC50 in the test with HL-60 is 5.89; in test [1], 7.30.
Regarding `O=C(COc1ccc(SCCCCCc2ccccc2)cc1)COc1ccc(C(=O)O)cc1`, the pIC50 in the test with HL-60 is 5.24; in test [1], 7.10.
On to `CCCCCCCCCCOc1ccc(OCC(=O)COc2ccc(C(=O)O)cc2)cc1`, for which the pIC50 in test [1] is 7.52.
For `O=C(COc1ccc(OCCCCCc2ccccc2)cc1)COc1ccc(C(=O)O)cc1`, the pIC50 with HL-60 was 5.59; in test [1], 6.34.
In the case of `O=C(COc1ccc(SCCCCC(=O)N2CCCCC2)cc1)COc1ccc(C(=O)O)cc1`, the pIC50 in test [1] was 4.92.
Regarding `O=C(COc1ccc(C(=O)O)cc1)COc1ccc2c(c1)C(=O)N(CCCCc1ccccc1)C2=O`, the pIC50 in the test with HL-60 was 6.12; in test [1] it was 6.74.
In the case of `CCOCCCCCCCOc1ccc(OCC(=O)COc2ccc(C(=O)O)cc2)cc1`, the pIC50 in test [1] was 5.77.
As for `O=C(COc1ccc(OCCCCCc2ccco2)cc1)COc1ccc(C(=O)O)cc1`, the pIC50 is 5.32 with HL-60 and 6.23 in test [1].
In the same order, the values of `O=C(COc1ccc(C(=O)O)cc1)COc1ccc(-c2noc(Cc3ccc(Cl)c(Cl)c3)n2)cc1` are 5.57 and 7.05.

For the origin of these results see ChEMBL document CHEMBL1147487, “Synthesis and evaluation of substrate-mimicking cytosolic phospholipase A2 inhibitors--reducing the lipophilicity of the arachidonyl chain isostere” (Bioorg Med Chem Lett, 2004).
